Series [1] can be described thus: toxicity testing, oral LD50. The note with it: in vivo.
Series [2] is described as follows: toxicity testing, dermal LD50. To be noted: in vivo, topical or ocular.
The nature of series [3]: solubility of monomer in solvents. In kind it is physicochemical. The note with it: wide variety of solvents. The text has this: The tert-butyl substituted thienothiophenes and their conjugated oligomers and polymers show better properties compared to their hydrogen, decyl and phenyl analogs.

The source of these data is US7118692B2, “Substituted thienothiophene monomers and conducting polymers” (priority 2004, dated 2006).

As to `c1cc2cscc2s1` [Thieno[3,4-b]thiophene], the LD50 – broadly, the dose at which mortality reaches 50% – is 50 mg/kg in series [1] and 200 to 400 mg/kg in series [2].
As for `CC(C)(C)c1cc2cscc2s1` [2-tert-butyl-thieno[3,4-b]thiophene], in series [3], the solubility in solvents result is “readily soluble in a wide variety of solvents”. For the same compound, the 50% lethal dose (LD50) was greater than 500 mg/kg in series [1] and greater than 400 mg/kg in series [2].
`c1ccc(-c2cc3cscc3s2)cc1` [2-phenyl-thieno[3,4-b]thiophene]: in series [3], the solubility in solvents result is on record as “only sparingly soluble”.
